In patent publication US10226041B2, “Compositions and methods for improving the quality of processed sperm” (Inguran, LLC, priority 2011, dated 2019):

System: sex-sorted sperm cells
Assay: CASA post-thaw motility of sex sorted bull sperm treated with OSR
Format: cell-based, bovine
Set-up: key to BCF: beat cross frequency in Hz; key to ALH: lateral head displacement in μm; key to STR / LIN: percent; key to Motile: percent motile sperm; key to VAP / VSL / VCL: velocity in μm/s
Details: 3 step
Excerpt: 5. Sperm Motility Evaluations by CASA. A comparison of viewing chambers and slides can be done in a variety of IVOS instruments, which for example only can be a Hamilton-Thorne IVOS (Hamilton-Thorne, Beverly, Mass.). Instrument settings: image capture; frames per second=60; number of frames=30; cell detection; minimum contrast=50; minimum cell size=5; defaults, cell size=5; cell intensity=50; progressive cells, path velocity=50 um/s; straightness ≥70%; slow cells (um/s); average path velocity (VAP, <30 um/s), straight-line velocity (VSL, <15 um/s). The CASA motility variables measured can be a percentage of total motile sperm (motile), percentage of progressively motile sperm (progressive), VAO, VSL, curvilinear velocity (VCL, um/s), average lateral head displacement (ALK, um) and the number of times the sperm head crosses the mean path/s (BCF, Hz), straight-line sperm motility (STR, %), and linear sperm motility (LIN, %). See for instance, Lenz, R W, et al., J Anim Sci (2011) 89:383-388, incorporated by reference herein in its entirety.
One set of semen from each bull was used as a control while to the remaining sets of semen samples were added vitamin B12, as the antioxidant, at respective concentrations of 0.5 mg/ml and 0.25 mg/ml. For each sample, the same concentration of vitamin B12 was added (i) during the staining process, and (ii) in the catch fluid of the collection vessel. […] Sperm samples were sorted in “High Purity” mode, and the collected sex-sorted sperm were extended with a cryoextender, which in some cases again contained the same concentration of vitamin B12 and the samples were frozen. Three hours after thawing (which is a standard time frame to conduct quality control assessments on sorted frozen thawed sperm samples) the thawed samples were put through CASA, a machine that provides various data on sperm including motility and progressive motility information.
In the tables below: VAP (average path velocity (μm/s)); VSL (straight-line velocity (μm/s)); VCL (curvilinear velocity (μm/s)); ALH (average lateral head displacement (μm)); BCF (the number of times the sperm head crosses the mean path/s in Hz); STR (percent straight-line sperm motility); LIN (percent linear sperm motility); PIA (percent intact acrosomes); motile (percent motile sperm); and progressive (percent progressively motile sperm).
There is no correlation with regard to randomly assigned names such as “Bull A.” Bull A from Example 5 is not the same bull as Bull A from Example 7.
In both cases the concentration of the vitamin B12 was 1 mg/ml. For all other bulls in the table below unless otherwise indicated, the concentration of vitamin B12 added was also 1 mg/ml.
In an additional experiment, motility and progressive motility were checked 3.75 hours after thawing a sex sorted semen sample treated with the antioxidant. The OSR was not added to the control sample. The semen sample was derived from a single bull. 0.25 mg/ml concentration of vitamin B12 was added to the test sample during the staining step, the collecting step (in the catch fluid of the collecting vessel) and in the cryoprotectant extender prior to freezing the sample.
[…] The OSR was not added to the control samples. The semen samples were derived from two Holstein bulls.

[1] = Holstein 6 hr post-thaw (1st block), .35 mg/ml
[2] = Holstein 6 hr post-thaw (1st block), .45 mg/ml
[3] = Holstein 6 hr post-thaw (2nd block), .25 mg/ml
[4] = Holstein 6 hr post-thaw (2nd block), .35 mg/ml
[5] = Holstein 6 hr post-thaw (2nd block), .45 mg/ml
[6] = Jersey 0 hr post-thaw, .25 mg/ml
[7] = Jersey 0 hr post-thaw, .35 mg/ml
[8] = Jersey 0 hr post-thaw, .45 mg/ml
[9] = Jersey 3 hr post-thaw, .25 mg/ml
[10] = Jersey 3 hr post-thaw, .35 mg/ml
[11] = Jersey 3 hr post-thaw, .45 mg/ml

In the case of `O=C(O)CCC(=O)C(=O)O` [AKG, Alpha-ketoglutarate], the Prog [1] is reported as 7, the STR [1] is reported as 76 and the VAP [1] is reported as 42. For the same compound, the VCL [1] was 80, the VSL [1] was 32 and the ALH [2] was 5. The BCF [2] was 22, the LIN [2] was 48 and the Motile [2] was 52. It also gave a Prog [2] of 22, an STR [2] of 82 and a VAP [2] of 55. The VCL [2] was 96, the VSL [2] was 46 and the ALH [3] was 6. For the same compound, the BCF [3] was 17, the LIN [3] was 39 and the Motile [3] was 36. The Prog [3] was 7, the STR [3] was 76 and the VAP [3] was 44. For the same compound, the VCL [3] was 87, the VSL [3] was 33 and the ALH [4] was 7. It also gave a BCF [4] of 16, an LIN [4] of 40 and a Motile [4] of 58. The Prog [4] was 7, the STR [4] was 76 and the VAP [4] was 42. The VCL [4] was 80, the VSL [4] was 32 and the ALH [5] was 5. For the same compound, the BCF [5] was 22, the LIN [5] was 48 and the Motile [5] was 52. For the same compound, the Prog [5] was 22, the STR [5] was 82 and the VAP [5] was 55. For the same compound, the VCL [5] was 96, the VSL [5] was 46 and the ALH [6] was 7. For the same compound, the BCF [6] was 24, the LIN [6] was 48 and the Motile [6] was 67. For the same compound, the Prog [6] was 51, the STR [6] was 83 and the VAP [6] was 83. It also gave a VCL [6] of 152, a VSL [6] of 68 and an ALH [7] of 6. The BCF [7] was 25, the LIN [7] was 47 and the Motile [7] was 57. The Prog [7] was 43, the STR [7] was 82 and the VAP [7] was 79. For the same compound, the VCL [7] was 146, the VSL [7] was 63 and the ALH [8] was 6. It also gave a BCF [8] of 27, an LIN [8] of 56 and a Motile [8] of 81. It also gave a Prog [8] of 66, an STR [8] of 87 and a VAP [8] of 81. It also gave a VCL [8] of 133, a VSL [8] of 70 and an ALH [9] of 5. For the same compound, the BCF [9] was 24, the LIN [9] was 46 and the Motile [9] was 33. The Prog [9] was 16, the STR [9] was 79 and the VAP [9] was 65. It also gave a VCL [9] of 117, a VSL [9] of 49 and an ALH [10] of 6. It also gave a BCF [10] of 25, an LIN [10] of 45 and a Motile [10] of 26. It also gave a Prog [10] of 10, an STR [10] of 80 and a VAP [10] of 59. For the same compound, the VCL [10] was 110, the VSL [10] was 46 and the ALH [11] was 6. The BCF [11] was 25, the LIN [11] was 45 and the Motile [11] was 59. The Prog [11] was 25, the STR [11] was 78 and the VAP [11] was 67. It also gave a VCL [11] of 66 and a VSL [11] of 50.
